Reference: patent US20120129833A1, “CYCLIC KETOENOLS FOR THERAPY” (BAYER PHARMA AKTIENGESELLSCHAFT, priority 2010, published 2012)

Tests used:
[1] = molecular target: T1, ACC2 (acetyl-CoA carboxylase 2) (Homo sapiens, UniProt O00763); test: Human ACC2 enzyme assay (HTRF ADP detection); format: biochemical; conditions: 20 μM acetyl-CoA, 15 min pre-incubation, 20 min at 22° C.; read-out: ACC 2 IC50
T1 construct: catalogue no; 50201, amino acids 39—end, expressed in baculovirus-transfected Sf9 insect cells; His (C); purchased BPS Bioscience (San Diego, Calif.) 50201; host or cells: baculovirus-transfected Sf9 insect cells
T1 sequence (O00763 39-2458 limits assumed): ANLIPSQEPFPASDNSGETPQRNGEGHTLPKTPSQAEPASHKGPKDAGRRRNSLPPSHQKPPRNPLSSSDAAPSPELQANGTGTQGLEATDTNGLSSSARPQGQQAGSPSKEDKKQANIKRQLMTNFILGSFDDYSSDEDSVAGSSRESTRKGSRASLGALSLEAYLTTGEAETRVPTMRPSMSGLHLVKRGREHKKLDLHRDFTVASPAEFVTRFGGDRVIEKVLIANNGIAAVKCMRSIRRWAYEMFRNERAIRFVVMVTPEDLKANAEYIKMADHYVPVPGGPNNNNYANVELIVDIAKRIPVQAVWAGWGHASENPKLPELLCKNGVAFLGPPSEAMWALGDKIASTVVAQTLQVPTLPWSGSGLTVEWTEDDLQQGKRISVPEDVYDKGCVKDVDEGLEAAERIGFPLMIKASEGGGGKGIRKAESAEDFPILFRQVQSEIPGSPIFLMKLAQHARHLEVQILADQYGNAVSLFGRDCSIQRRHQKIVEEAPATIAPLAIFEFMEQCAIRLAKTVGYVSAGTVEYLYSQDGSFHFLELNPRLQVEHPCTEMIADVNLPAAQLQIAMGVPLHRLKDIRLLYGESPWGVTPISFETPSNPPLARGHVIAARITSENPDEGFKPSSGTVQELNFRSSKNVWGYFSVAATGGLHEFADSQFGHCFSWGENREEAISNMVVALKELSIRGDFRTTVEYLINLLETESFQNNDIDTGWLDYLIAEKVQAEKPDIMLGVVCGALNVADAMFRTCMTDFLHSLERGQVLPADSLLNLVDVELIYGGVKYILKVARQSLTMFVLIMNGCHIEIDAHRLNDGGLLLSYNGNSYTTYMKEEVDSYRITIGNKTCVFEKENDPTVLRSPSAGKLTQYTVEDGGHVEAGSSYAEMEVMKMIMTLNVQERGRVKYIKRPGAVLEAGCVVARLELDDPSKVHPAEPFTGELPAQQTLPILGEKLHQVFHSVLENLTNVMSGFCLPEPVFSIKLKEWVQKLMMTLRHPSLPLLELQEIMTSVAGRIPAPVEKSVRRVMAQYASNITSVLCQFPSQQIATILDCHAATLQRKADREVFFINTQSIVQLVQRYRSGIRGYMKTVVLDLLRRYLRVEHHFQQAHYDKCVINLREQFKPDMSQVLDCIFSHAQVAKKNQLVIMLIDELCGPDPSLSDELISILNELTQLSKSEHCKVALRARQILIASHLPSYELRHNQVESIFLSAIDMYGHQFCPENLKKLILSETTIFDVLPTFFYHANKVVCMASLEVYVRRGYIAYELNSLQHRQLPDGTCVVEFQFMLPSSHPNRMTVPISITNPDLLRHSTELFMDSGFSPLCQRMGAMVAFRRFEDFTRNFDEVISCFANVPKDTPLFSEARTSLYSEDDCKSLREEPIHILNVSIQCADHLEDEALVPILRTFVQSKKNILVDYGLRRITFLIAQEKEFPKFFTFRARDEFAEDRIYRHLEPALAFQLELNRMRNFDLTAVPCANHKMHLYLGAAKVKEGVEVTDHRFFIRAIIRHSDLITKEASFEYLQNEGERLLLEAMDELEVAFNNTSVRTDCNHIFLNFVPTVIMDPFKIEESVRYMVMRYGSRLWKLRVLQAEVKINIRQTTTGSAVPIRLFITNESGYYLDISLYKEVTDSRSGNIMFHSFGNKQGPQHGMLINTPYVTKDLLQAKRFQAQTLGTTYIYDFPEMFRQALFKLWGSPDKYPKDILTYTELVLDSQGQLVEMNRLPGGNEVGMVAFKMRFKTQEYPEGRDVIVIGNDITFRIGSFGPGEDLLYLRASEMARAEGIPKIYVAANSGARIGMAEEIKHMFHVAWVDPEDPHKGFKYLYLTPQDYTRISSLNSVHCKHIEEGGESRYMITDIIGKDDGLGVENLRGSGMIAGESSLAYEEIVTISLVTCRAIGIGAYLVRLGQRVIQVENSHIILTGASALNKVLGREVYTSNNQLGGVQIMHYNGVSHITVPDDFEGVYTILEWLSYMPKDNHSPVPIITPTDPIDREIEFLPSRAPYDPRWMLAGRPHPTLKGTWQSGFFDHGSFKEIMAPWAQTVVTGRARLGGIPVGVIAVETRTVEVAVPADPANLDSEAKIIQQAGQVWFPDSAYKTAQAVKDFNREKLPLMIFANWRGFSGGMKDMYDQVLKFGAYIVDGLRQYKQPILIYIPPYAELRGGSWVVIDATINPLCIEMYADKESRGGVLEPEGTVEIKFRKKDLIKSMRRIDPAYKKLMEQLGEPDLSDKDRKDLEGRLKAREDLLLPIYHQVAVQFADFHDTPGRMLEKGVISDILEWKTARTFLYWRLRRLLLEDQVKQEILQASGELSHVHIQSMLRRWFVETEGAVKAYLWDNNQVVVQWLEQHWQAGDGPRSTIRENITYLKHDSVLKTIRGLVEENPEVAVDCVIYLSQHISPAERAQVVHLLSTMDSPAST

[2] = molecular target: T2, recombinant human ACC1 (acetyl-CoA carboxylase 1) (Homo sapiens, UniProt Q13085); test: Human ACC1 enzyme assay (HTRF ADP detection); format: biochemical; conditions: 50 μM ATP, 20 μM acetyl-CoA, 15 min pre-incubation, 20 min at 22° C.; read-out: ACC 1 IC50;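 also: ADP by-product quantified by competitive HTRF immunoassay with europium cryptate anti-ADP antibody and d2-labelled ADP, read after 1 h binding at 22 °C, enzyme near 2.5 ng/µl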
T2 construct: NM_198834, amino acids 39—end; FLAG (C); made in house; host or cells: baculovirus-transfected insect cells (Hi5)
Method: The basic principle of the assay is the measurement of adenosine diphosphate (ADP), which is formed as a by-product, by means of an HTRF®-based competitive immunoassay (HTRF=Homogeneous Time Resolved Fluorescence).
The amount of complex of d2-labelled ADP and europium cryptate-labelled anti-ADP antibody was then determined by measuring the resonance energy transfer of europium cryptate to d2.

Row | Compound | IC50 [1] | IC50 [2]
1 | Cc1ccc(-c2ccc(Cl)cc2)cc1C1=C(O)C2(CCCOC2)NC1=O (centres unmarked) [Example 1-5, 3-(4′-chloro-4-methylbiphenyl-3-yl)-4-hydroxy-7-oxa-1-azaspiro[4.5]dec-3-en-2-one] | 8240 nM | 287 nM
2 | Cc1ccc(-c2ccc(Cl)cc2)cc1C1=C(O)C2(CCOCC2)NC1=O [Example 1-6, 3-(4′-chloro-4-methylbiphenyl-3-yl)-4-hydroxy-8-oxa-1-azaspiro[4.5]dec-3-en-2-one] | 5200 nM | 300 nM
3 | COC1CCC2(CC1)NC(=O)C(c1cc(-c3ccc(Cl)cc3)c(C)cc1C)=C2O (centres unmarked) [Example 1-7, 3-(4′-chloro-4,6-dimethylbiphenyl-3-yl)-4-hydroxy-8-methoxy-1-azaspiro[4.5]dec-3-en-2-one] | 87 nM | 1700 nM
4 | Cc1cc(C)c(-c2ccc(Cl)cc2)cc1C1=C(O)C2(CCCOC2)NC1=O (centres unmarked) [Example 1-8, 3-(4′-chloro-4,6-dimethylbiphenyl-3-yl)-4-hydroxy-7-oxa-1-azaspiro[4.5]dec-3-en-2-one] | 810 nM | 790 nM
5 | COC1CCC2(CC1)NC(=O)C(c1c(C)cc(C)c(-c3ccc(Cl)cc3)c1C)=C2O (centres unmarked) [Example 1-9, 3-(4′-chloro-2,4,6-trimethylbiphenyl-3-yl)-4-hydroxy-8-methoxy-1-azaspiro[4.5]dec-3-en-2-one] | 626 nM | 16600 nM
6 | Cc1ccc(-c2ccc(Cl)cc2)c(C)c1C1=C(O)C2(CCCOC2)NC1=O (centres unmarked) [Example 1-10, 3-(4′-chloro-2,4-dimethylbiphenyl-3-yl)-4-hydroxy-7-oxa-1-azaspiro[4.5]dec-3-en-2-one] | 6400 nM | 550 nM
7 | COC1CCC2(CC1)NC(=O)C(c1cc(-c3ccc(Cl)cc3)ccc1Cl)=C2O (centres unmarked) [Example 1-11, 3-(4,4′-dichlorobiphenyl-3-yl)-4-hydroxy-8-methoxy-1-azaspiro[4.5]dec-3-en-2-one] | 1000 nM | 240 nM
8 | Cc1ccc(-c2ccc(C(F)(F)F)cc2)cc1C1=C(O)C2(CCCCC2)NC1=O [Example 1-12, 4-hydroxy-3-[4-methyl-4′-(trifluoromethyl)biphenyl-3-yl]-1-azaspiro[4.5]dec-3-en-2-one] | 18200 nM | 772 nM
9 | Cc1ccc(-c2ccc(C)c(C3=C(O)C4(CCCCC4)NC3=O)c2)cc1 [Example 1-13, 3-(4,4′-dimethylbiphenyl-3-yl)-4-hydroxy-1-azaspiro[4.5]dec-3-en-2-one] | 18900 nM | 353 nM
10 | Cc1ccc(-c2ccc(C)c(C3=C(O)C4(CCCOC4)NC3=O)c2)cc1 (centres unmarked) [Example 1-14, 3-(4,4′-dimethylbiphenyl-3-yl)-4-hydroxy-7-oxa-1-azaspiro[4.5]dec-3-en-2-one] | > 20000 nM | 990 nM
11 | Cc1ccc(-c2ccc(C)c(C3=C(O)C4(CCOCC4)NC3=O)c2)cc1 [Example 1-15, 3-(4,4′-dimethylbiphenyl-3-yl)-4-hydroxy-8-oxa-1-azaspiro[4.5]dec-3-en-2-one] | > 20000 nM | 742 nM
12 | Cc1ccc(-c2ccc(Cl)cc2)cc1C1=C(O)CN(C)C1=O [Example 1-16, 3-(4′-chloro-4-methylbiphenyl-3-yl)-4-hydroxy-1-methyl-1,5-dihydro-2H-pyrrol-2-one] | > 20000 nM | 329 nM
13 | Cc1ccc(-c2ccc(Cl)cc2)cc1C1=C(O)CN(C(C)C)C1=O [Example 1-17, 3-(4′-chloro-4-methylbiphenyl-3-yl)-4-hydroxy-1-(propan-2-yl)-1,5-dihydro-2H-pyrrol-2-one] | 4020 nM | 334 nM
14 | Cc1ccc(-c2ccc(Cl)cc2)cc1C1=C(O)CN(C2CC2)C1=O [Example 1-18, 3-(4′-chloro-4-methylbiphenyl-3-yl)-1-cyclopropyl-4-hydroxy-1,5-dihydro-2H-pyrrol-2-one] | 7610 nM | 797 nM
15 | Cc1ccc(-c2ccc(Cl)cc2)cc1C1=C(O)C(C)N(C(C)C)C1=O (centres unmarked) [Example 1-19, 3-(4′-chloro-4-methylbiphenyl-3-yl)-4-hydroxy-5-methyl-1-(propan-2-yl)-1,5-dihydro-2H-pyrrol-2-one] | 6960 nM | 874 nM
16 | Cc1ccc(-c2ccc(Cl)cc2)cc1C1=C(O)C2(CCC(C)(C)CC2)NC1=O [Example 1-20, 3-(4′-chloro-4-methylbiphenyl-3-yl)-4-hydroxy-8,8-dimethyl-1-azaspiro[4.5]dec-3-en-2-one] | 214 nM | 240 nM
17 | Cc1ccc(-c2ccc(Cl)cc2)cc1C1=C(O)C2CSCCN2C1=O (centres unmarked) [Example 1-21, 7-(4′-chloro-4-methylbiphenyl-3-yl)-8-hydroxy-1,3,4,8a-tetrahydro-6H-pyrrolo[2,1-c][1,4]thiazin-6-one] | 15100 nM | 533 nM

Row | Compound | IC50 [1] | IC50 [2]
18 | Cc1ccc(-c2ccc(Cl)cc2)cc1C1=C(O)CN(C2CCCCC2)C1=O [Example 1-22, 3-(4′-chloro-4-methylbiphenyl-3-yl)-1-cyclohexyl-4-hydroxy-1,5-dihydro-2H-pyrrol-2-one] | 695 nM | 969 nM
19 | Cc1ccc(-c2ccc(Cl)cc2)cc1C1=C(O)C2(CCCCCCC2)NC1=O [Example 1-23, 3-(4′-chloro-4-methylbiphenyl-3-yl)-4-hydroxy-1-azaspiro[4.7]dodec-3-en-2-one] | 485 nM | 584 nM
20 | Cc1ccc(-c2ccc(Cl)cc2)cc1C1=C(O)C2(CCC(C(C)C)CC2)NC1=O (centres unmarked) [Example 1-24, 3-(4′-chloro-4-methylbiphenyl-3-yl)-4-hydroxy-8-(propan-2-yl)-1-azaspiro[4.5]dec-3-en-2-one] | 210 nM | 340 nM
21 | Cc1ccc(-c2ccc(Cl)cc2)cc1C1=C(O)C2(Cc3ccccc3C2)NC1=O [Example 1-25, 4′-(4′-chloro-4-methylbiphenyl-3-yl)-3′-hydroxy-1,3-dihydrospiro[indene-2,2′-pyrrol]-5′(1′H)-one] | 3360 nM | 495 nM
22 | Cc1ccc(-c2ccc(Cl)cc2)cc1C1=C(O)C2(CCCCCC2)NC1=O [Example 1-26, 3-(4′-chloro-4-methylbiphenyl-3-yl)-4-hydroxy-1-azaspiro[4.6]undec-3-en-2-one] | 1250 nM | 540 nM
23 | Cc1ccc(-c2ccc(Cl)cc2)cc1C1=C(O)CN(CC(C)C)C1=O [Example 1-27, 3-(4′-chloro-4-methylbiphenyl-3-yl)-4-hydroxy-1-(2-methylpropyl)-1,5-dihydro-2H-pyrrol-2-one] | > 20000 nM | 472 nM
24 | CCOC1CCC2(CC1)NC(=O)C(c1cc(-c3ccc(Cl)cc3)ccc1C)=C2O (centres unmarked) [Example 1-28, 3-(4′-chloro-4-methylbiphenyl-3-yl)-8-ethoxy-4-hydroxy-1-azaspiro[4.5]dec-3-en-2-one] | 192 nM | 443 nM
25 | O=C1N[C@]2(CC[C@@H](OCC(F)(F)F)CC2)C(O)=C1c1cc(-c2ccc(Cl)cc2)ccc1Cl [Example 1-29, (5s,8s)-3-(4,4′-dichlorobiphenyl-3-yl)-4-hydroxy-8-(2,2,2-trifluoroethoxy)-1-azaspiro[4.5]dec-3-en-2-one] | 1900 nM | 270 nM
26 | Cc1ccc(-c2ccc(Cl)cc2)c(C)c1C1=C(O)[C@]2(CC[C@H](OCC(F)(F)F)CC2)NC1=O [Example 1-30, (5s,8s)-3-(4′-chloro-2,4-dimethylbiphenyl-3-yl)-4-hydroxy-8-(2,2,2-trifluoroethoxy)-1-azaspiro[4.5]dec-3-en-2-one] | 300 nM | 542 nM
27 | Cc1ccc(-c2ccc(F)cc2)c(C)c1C1=C(O)C2(CCC(OCC(F)(F)F)CC2)NC1=O (centres unmarked) [Example 1-31, 3-(4′-fluoro-2,4-dimethylbiphenyl-3-yl)-4-hydroxy-8-(2,2,2-trifluoroethoxy)-1-azaspiro[4.5]dec-3-en-2-one] | 5960 nM | 963 nM
28 | Cc1ccc(-c2ccc(F)cc2)cc1C1=C(O)C2(CCC(OCC(F)(F)F)CC2)NC1=O (centres unmarked) [Example 1-32, 3-(4′-fluoro-4-methylbiphenyl-3-yl)-4-hydroxy-8-(2,2,2-trifluoroethoxy)-1-azaspiro[4.5]dec-3-en-2-one] | 14000 nM | 860 nM
29 | Cc1ccc(-c2ccc(Cl)cc2)cc1C1=C(O)C2(CCC(OCC(F)(F)F)CC2)NC1=O (centres unmarked) [Example 1-33, 3-(4′-chloro-4-methylbiphenyl-3-yl)-4-hydroxy-8-(2,2,2-trifluoroethoxy)-1-azaspiro[4.5]dec-3-en-2-one] | 535 nM | 359 nM
30 | Cc1ccc(-c2ccc(Cl)cc2)c(C)c1C1=C(O)C2(CCC3(CCCO3)CC2)NC1=O (centres unmarked) [Example 1-34, 11-(4′-chloro-2,4-dimethylbiphenyl-3-yl)-12-hydroxy-1-oxa-9-azadispiro[4.2.4.2]tetradec-11-en-10-one] | 9400 nM | 470 nM
31 | Cc1ccc(-c2ccc(F)c(F)c2)cc1C1=C(O)C2(CCC3(CCCO3)CC2)NC1=O (centres unmarked) [Example 1-35, 11-(3′,4′-difluoro-4-methylbiphenyl-3-yl)-12-hydroxy-1-oxa-9-azadispiro[4.2.4.2]tetradec-11-en-10-one] | 4000 nM | 298 nM
32 | Cc1ccc(-c2cc(F)c(F)c(F)c2)cc1C1=C(O)C2(CCOCC2)NC1=O [Example 1-36, 4-hydroxy-3-(3′,4′,5′-trifluoro-4-methylbiphenyl-3-yl)-8-oxa-1-azaspiro[4.5]dec-3-en-2-one] | > 20000 nM | 792 nM
33 | Cc1ccc(-c2ccc(F)c(F)c2)cc1C1=C(O)C2(CCOCC2)NC1=O [Example 1-37, 3-(3′,4′-difluoro-4-methylbiphenyl-3-yl)-4-hydroxy-8-oxa-1-azaspiro[4.5]dec-3-en-2-one] | > 20000 nM | 810 nM
34 | O=C1NC2(CCOCC2)C(O)=C1c1cc(-c2cc(F)c(F)c(F)c2)ccc1Cl [Example 1-38, 3-(4-chloro-3′,4′,5′-trifluorobiphenyl-3-yl)-4-hydroxy-8-oxa-1-azaspiro[4.5]dec-3-en-2-one] | > 20000 nM | 497 nM
